Patent US20090240058A1, “Activator for Peroxisome Proliferator-Activating Receptor Delta” (priority 2005, published 2009)

Columns and labels:
hPPAR α (LBD) = molecular target: T1, hPPAR α (LBD) (Homo sapiens, UniProt Q07869); assay: GAL4-hPPAR α (LBD) luciferase reporter transactivation in CV-1 cells; format: cell-based; parameters: key: IA: inactive; details: relative to 100% of compound of Example 2 of Patent Publication 4 at 10^−6 M
T1 construct: A receptor expression plasmid (pSG5-GAL4-hPPAR α or γ or δ (LBD)); GAL4 (fusion partner); expressed in transfected cells; host or cells: CV-1 cells (ATCC)
T1 sequence (Q07869 239-466 limits assumed): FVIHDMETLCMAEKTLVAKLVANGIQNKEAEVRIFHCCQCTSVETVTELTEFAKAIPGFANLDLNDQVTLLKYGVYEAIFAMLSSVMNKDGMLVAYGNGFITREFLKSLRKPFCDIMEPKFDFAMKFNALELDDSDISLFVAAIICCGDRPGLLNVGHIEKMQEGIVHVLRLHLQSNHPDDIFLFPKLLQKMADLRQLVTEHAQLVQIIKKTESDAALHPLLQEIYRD
Description: (§1) A receptor expression plasmid (pSG5-GAL4-hPPAR α or γ or δ (LBD)), a luciferase expression plasmid (pUC8-MH100x4-TK-Luc) and β-galactosidase expression plasmid (pCMX-β-GAL) (Kliewer, S. A., et. al., (1992) Nature, 358:771-774) are transfected into CV-1 cells (ATCC). After gene transfer utilizing a lipofection reagent DMRIE-C or Lipofectamin 2000 (Invitrogen), it is incubated for 42 hours in the presence of the test compound. Then, the luciferase activity and β-GAL activity are measured on the soluble cells. The luciferase activity is calibrated by the β-GAL activity. A relative ligand activity is calculated for each of the PPARα, γ and δ under the following conditions: a relative activity of PPAR α is calculated in consideration of a luciferase activity (assigned to 100%) of cells treated with the compound described in Example 2 of the aforementioned Patent Publication 4 (PPARα-selective agonist); a relative activity of PPAR γ is calculated in consideration of a luciferase activity (assigned to 100%) cells treated with Rosiglitazone; and a relative activity of PPAR δ is calculated in consideration of a luciferase activity (assigned to 100%) of cells treated with GW-501516. See the below-described Examples 22 and 23.
(§2) The PPARδ activating effects of test compounds (compounds of Examples) were measured by the following method:
as §1, with “(pUC8-MH100x-4-TK-Luc)” for “(pUC8-MH100x4-TK-Luc)”, “approx. 40” for “42”, “PPAR α,” for “PPARα,”, “GW-501516.” for “GW-501516. See the below-described Examples 22 and 23.”
(§3) The experimental results Table 28 were obtained by procedures similar to the procedures for pharmacological experimental described in Example 22.

hPPAR γ (LBD) = molecular target: T2, hPPAR γ (LBD) (Homo sapiens, UniProt P37231); assay: GAL4-hPPAR γ (LBD) luciferase reporter transactivation in CV-1 cells; format: cell-based; parameters: key: IA: inactive; details: relative to 100% of Rosiglitazone at 10^−5 M
T2 construct: A receptor expression plasmid (pSG5-GAL4-hPPAR α or γ or δ (LBD)); GAL4 (fusion partner); expressed in transfected cells; host or cells: CV-1 cells (ATCC)
T2 sequence (P37231 238-503 limits assumed): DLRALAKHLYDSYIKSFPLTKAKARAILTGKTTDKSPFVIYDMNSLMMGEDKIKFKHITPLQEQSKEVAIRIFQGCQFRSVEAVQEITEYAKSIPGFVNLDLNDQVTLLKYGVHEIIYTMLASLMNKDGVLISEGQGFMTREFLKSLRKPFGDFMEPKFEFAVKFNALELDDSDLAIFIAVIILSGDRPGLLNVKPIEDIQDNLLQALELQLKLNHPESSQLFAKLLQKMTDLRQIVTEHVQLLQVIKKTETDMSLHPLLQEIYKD
Description: as §1, §2
as §1, with “(pUC8-MH100x-4-TK-Luc)” for “(pUC8-MH100x4-TK-Luc)”, “approx. 40” for “42”, “PPAR α,” for “PPARα,”, “GW-501516.” for “GW-501516. See the below-described Examples 22 and 23.”
as §3

hPPAR δ (LBD) = molecular target: T3, hPPAR δ (LBD) (Homo sapiens, UniProt Q03181); assay: GAL4-hPPAR δ (LBD) luciferase reporter transactivation in CV-1 cells; format: cell-based; details: relative to 100% of GW-501516 at 10^−7 M
T3 construct: A receptor expression plasmid (pSG5-GAL4-hPPAR α or γ or δ (LBD)); GAL4 (fusion partner); expressed in transfected cells; host or cells: CV-1 cells (ATCC)
T3 sequence (Q03181 211-439 limits assumed): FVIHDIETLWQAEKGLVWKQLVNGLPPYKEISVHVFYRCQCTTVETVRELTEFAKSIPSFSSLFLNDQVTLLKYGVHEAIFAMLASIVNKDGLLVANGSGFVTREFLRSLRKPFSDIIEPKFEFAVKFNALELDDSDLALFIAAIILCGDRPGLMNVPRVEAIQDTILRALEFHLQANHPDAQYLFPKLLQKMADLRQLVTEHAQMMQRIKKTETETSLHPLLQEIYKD
Description: For determining PPARδ activating effect of the compounds according to the invention, PPARδ activating effects of test compounds (compounds of Examples) were measured by the following method:
as §1, §2
as §1, with “(pUC8-MH100x-4-TK-Luc)” for “(pUC8-MH100x4-TK-Luc)”, “approx. 40” for “42”, “PPAR α,” for “PPARα,”, “GW-501516.” for “GW-501516. See the below-described Examples 22 and 23.”
as §3

[1] = test compound 10^−7 M (Examples 5, 8 and 10)
[2] = test compound 10^−7 M (Examples 8 and 10)
[3] = Table 28, test compound 10^−6 M

Row | SMILES | PPAR activity (%) α (hPPAR α (LBD); test compound 10^−6 M) | PPAR activity (%) γ (hPPAR γ (LBD); test compound 10^−6 M) | PPAR activity (%) δ (hPPAR δ (LBD); test compound 10^−6 M) | PPAR activity (%) δ (hPPAR δ (LBD); [1]) | melting point | PPAR activity (%) α (hPPAR α (LBD); [2]) | PPAR activity (%) α (hPPAR α (LBD); [3]) | PPAR activity (%) γ (hPPAR γ (LBD); [3]) | PPAR activity (%) δ (hPPAR δ (LBD); [3])
1 | Cc1cc(C(=O)CCc2cn(-c3ccc(C(F)(F)F)cc3)nc2C(C)C)ccc1OC(C)(C)C(=O)O [Example 1, 2-[4-[3-[3-Isopropyl-1-(4-trifluoromethylphenyl)-1H-pyrazol-4-yl]propionyl]-2-methylphenoxy]-2-methylpropionic acid] | 62% | 7% | 87% |  |  |  |  |  | 
2 | Cc1cc(C(=O)CCc2cn(-c3ccc(C(F)(F)F)cc3)nc2C(C)C)ccc1OCC(=O)O [Example 2, 4-[3-[3-Isopropyl-1-(4-trifluoromethylphenyl)-1H-pyrazol-4-yl]propionyl]-2-methylphenoxyacetic acid] | IA | IA | 76% |  |  |  |  |  | 
3 | Cc1ccc(-n2cc(CCC(=O)c3ccc(OC(C)(C)C(=O)O)c(C)c3)c(C(C)C)n2)nc1 [Example 3, 2-[4-[3-[3-Isopropyl-1-(5-methylpyridin-2-yl)-1H-pyrazol-4-yl]propionyl]-2-methylphenoxy]-2-methylpropionic acid] | 131% | 30% | 72% |  |  |  |  |  | 
4 | Cc1cc(C(=O)CCc2cc(-c3ccc(C(F)(F)F)cc3)nn2C(C)C)ccc1OC(C)(C)C(=O)O [Example 5, 2-[4-[3-[1-Isopropyl-3-(4-trifluoromethylphenyl)-1H-pyrazol-5-yl]propionyl]-2-methylphenoxy]-2-methylpropionic acid] | 109% | 15% |  | 93% |  |  |  |  | 
5 | Cc1cc(C(=O)CCc2cc(-c3ccc(C(F)(F)F)cc3)nn2C(C)C)ccc1OCC(=O)O [Example 6, [4-[3-[1-Isopropyl-3-(4-trifluoromethylphenyl)-1H-pyrazol-5-yl]propionyl]-2-methylphenoxy]acetic acid] | IA | IA | 86% |  | 160 to 163 °C |  |  |  | 
6 | C=C(CCc1cc(-c2ccc(C(F)(F)F)cc2)nn1C(C)C)c1ccc(OC(C)(C)C(=O)O)c(C)c1 [Example 7, 2-[4-[1-[2-[1-Isopropyl-3-(4-trifluoromethylphenyl)-1H-pyrazol-5-yl]ethyl]vinyl]-2-methylphenoxy]-2-methylpropionic acid] | 84% | 38% | 72% |  |  |  |  |  | 
7 | Cc1cc(C(C)CCc2cc(-c3ccc(C(F)(F)F)cc3)nn2C(C)C)ccc1OC(C)(C)C(=O)O (stereo not drawn) [Example 8, 2-[4-[3-[1-Isopropyl-3-(4-trifluoromethylphenyl)-1H-pyrazol-5-yl]-1-methylpropyl]-2-methylphenoxy]-2-methylpropionic acid] |  | 61% |  | 45% |  | 89% |  |  | 
8 | Cc1cc(C(=O)CCc2cc(-c3ccc(C(F)(F)F)cc3)nn2C(C)C)ccc1OC(C)C(=O)O (stereo not drawn) [Example 9, 2-[4-[3-[1-Isopropyl-3-(4-trifluoromethylphenyl)-1H-pyrazol-5-yl]propionyl]-2-methylphenoxy]propionic acid] | 73% | 29% | 59% |  |  |  |  |  | 
9 | CCCCCCn1nc(-c2ccc(C(F)(F)F)cc2)cc1CCC(=O)c1ccc(OC(C)(C)C(=O)O)c(C)c1 [Example 10, 2-[4-[3-[1-Hexyl-3-(4-trifluoromethylphenyl)-1H-pyrazol-5-yl]propionyl]-2-methylphenoxy]-2-methylpropionic acid] |  | 54% |  | 53% |  | 77% |  |  | 
10 | CCCCCCn1nc(-c2ccc(C(F)(F)F)cc2)cc1CCC(=O)c1ccc(OCC(=O)O)c(C)c1 [Example 11, [4-[3-[1-Hexyl-3-(4-trifluoromethylphenyl)-1H-pyrazol-5-yl]propionyl]-2-methylphenoxy]acetic acid] | IA | IA | 81% |  | 118 to 123 °C |  |  |  | 
11 | Cc1cc(C(=O)CCc2sc(-c3ccc(C(F)(F)F)cc3)cc2C)ccc1OC(C)(C)C(=O)O [Example 12, 2-Methyl-2-[2-methyl-4-[3-[3-methyl-5-(4-trifluoromethylphenyl)thiophen-2-yl]propionyl]phenoxy]-propionic acid] | 51% | 29% | 94% |  |  |  |  |  | 
12 | Cc1cc(C(=O)CCc2sc(-c3ccc(C(F)(F)F)cc3)cc2C)ccc1OCC(=O)O [Example 13, [2-Methyl-4-[3-[3-methyl-5-(4-trifluoromethylphenyl)thiophen-2-yl]propionyl]phenoxy]acetic acid] | IA | IA | 82% |  |  |  |  |  | 
13 | CCCCCCn1nc(-c2ccc(C)cc2)cc1CCC(=O)c1ccc(OC(C)(C)C(=O)O)c(C)c1 [Example 14, 2-[4-[3-[1-Hexyl-3-(4-methylphenyl)-1H-pyrazol-5-yl]propionyl]-2-methylphenoxy]-2-methylpropionic acid] |  |  |  |  |  |  | 123% | 48% | 94%
14 | Cc1cc(C(=O)CCc2sc(-c3ccc(C(F)(F)F)cc3)cc2C(C)C)ccc1OC(C)(C)C(=O)O [Example 15, 2-[4-[3-[3-Isopropyl-5-(4-trifluoromethylphenyl)thiophen-2-yl]propionyl]-2-methylphenoxy]-2-methylpropionic acid] |  |  |  |  |  |  | 99% | 11% | 85%
15 | Cc1cc(C(=O)CCc2sc(-c3ccc(C(F)(F)F)cc3)cc2C(C)C)ccc1OCC(=O)O [Example 16, [4-[3-[3-Isopropyl-5-(4-trifluoromethylphenyl)thiophen-2-yl]propionyl]-2-methylphenoxy]acetic acid] |  |  |  |  | 139 to 143 °C |  | inactive | inactive | 92%
16 | CCCCCCc1cc(-c2ccc(C)cc2)sc1CCC(=O)c1ccc(OC(C)(C)C(=O)O)c(C)c1 [Example 17, 2-[4-[3-[3-Hexyl-5-(4-methylphenyl)thiophen-2-yl]propionyl]-2-methylphenoxy]-2-methylpropionic acid] |  |  |  |  |  |  | 109% | 35% | 76%
